From US11173124B2, “Oral delivery of GLP-1 peptide analogs” (MEDIMMUNE LIMITED, priority 2017, dated 2021)
Where “and” joins values, the source holds several entries; their conditions need not be identical. Equal values may be shown once. Read-outs that look alike come from different tables or passages of the source. Starred links: 1 amine or outer side, 2 acyl side, 3 side chain; linkers in the order of their positions; H or OH if unused. Non-standard residues stand in square brackets, D forms with d. Residues, ends and D or L forms follow the SMILES beside them. Groups on a side chain read outwards from the residue. *: point of attachment. γGlu = O=C(O)[C@H](CCC(=O)[*:2])N[*:1]; αMeF = C[C@](N)(Cc1ccccc1)C(=O)O; αMeK = C[C@](N)(CCCCN)C(=O)O; Lauroyl = CCCCCCCCCCCC(=O)*; αMeS = C[C@](N)(CO)C(=O)O; AEEA = NCCOCCOCC(=O)O; Aib = CC(C)(N)C(=O)O

Assays:
GLP-1 receptor = molecular target: T1, GLP-1 receptor (Rattus norvegicus, UniProt P32301); test: cAMP assay, INSle assay as described in WO 2016/198544; format: cell-based; conditions: in vitro potency at the GLP-1 receptor
T1 construct: endogenous in cells; host or cells: INS-1E rat insulinoma cells (printed as 'INSle')
T1 sequence (P32301 22-463): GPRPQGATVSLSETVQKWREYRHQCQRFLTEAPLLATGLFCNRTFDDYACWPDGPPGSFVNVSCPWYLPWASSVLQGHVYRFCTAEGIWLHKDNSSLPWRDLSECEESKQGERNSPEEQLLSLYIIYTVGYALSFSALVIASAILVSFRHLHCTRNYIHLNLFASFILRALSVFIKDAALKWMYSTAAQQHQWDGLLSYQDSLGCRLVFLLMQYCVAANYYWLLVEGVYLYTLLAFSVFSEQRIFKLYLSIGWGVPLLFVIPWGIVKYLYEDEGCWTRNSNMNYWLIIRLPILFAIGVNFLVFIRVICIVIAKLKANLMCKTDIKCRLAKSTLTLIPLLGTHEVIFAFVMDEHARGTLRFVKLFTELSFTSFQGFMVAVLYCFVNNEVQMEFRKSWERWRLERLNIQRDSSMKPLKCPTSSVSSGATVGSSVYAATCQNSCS
Source text: The biological activity of a GLP-1 peptide analog can be evaluated, for example, by assessing the ability of the peptide to activate a receptor (e.g., a GLP-1 receptor). Peptide activation of such receptors results in downstream accumulation of cAMP second messenger which can be measured in a functional activity assay.

[1] = Rat intraduodenal study, MEDI7219 with new permeation enhancer formulations (Example 7); format: in vivo; conditions: for AUC(0-t) / Cmax / Tmax / half-life: plasma; for half-life: read-out: T ½ (converted)
Method: The following rat ID study compared oral bioavailability of the MEDI7219 (SEQ ID NO:2) peptide formulated with new permeation enhancer formulations after intraduodenal administration in rats. All test articles were prepared as solutions in 50 mM Tris, 150 mM mannitol, 0.02% polysorbate 80, pH 8.5. Table 8 gives the formulation and pharmacokinetic analysis details.

[2] = Rat intraduodenal study, MEDI7219 with new gallate derivatives and other enhancers (Example 8); format: in vivo
Method: The next rat ID administration study was performed to assess the oral bioavailability and pharmacokinetics of MEDI7219 (SEQ ID NO:2) formulations containing new gallate derivatives, sodium 2-(3,4,5-trihydroxybenzoyloxy) acetate and butanoate, sodium cholate with propyl gallate, sodium caprate with propyl gallate, sodium caprate with propyl gallate and citric acid, and sucrose monododecanoate.

[3] = Canine study, MEDI7219 tablets in acid-resistant capsules (Example 13); format: in vivo
Method: The formulations tested in this study contained the MEDI7219 (SEQ ID NO:2) peptide, whereas the SEQ ID NO:6 peptide was used in tablet formulations for the previous canine study in Example 12. Tablets were placed in acid-resistant capsules (one tablet/capsule) prior to dosing. […] (Table 20). This formulation contained 0.1 mg/kg MEDI7219 (SEQ ID NO:2) peptide and 300 mg total permeation enhancer (PE) consisting of a 1:2 ratio of sodium chenodeoxycholate to propyl gallate. This ratio worked better compared to a 2:1 ratio of these permeation enhancers (Group 9, Table 20). This study also confirmed the utility of Tris base as a pH stabilizer.

[4] = Canine study, MEDI7219 multi-unit particulate (MUPS) formulations (Example 16); format: in vivo; conditions: Oral capsule, MUPS 9 mg peptide, 88 mg Na CDC, 190 mg PG
Method: Ten different Multi-unit particulate (MUPS) formulations were prepared (Table 23) using the MEDI7219 (SEQ ID NO:2) peptide and permeation enhancers. The manufacturing process for the MUPS formulation was as follows. A solution of MEDI7219 (SEQ ID NO:2) peptide, sodium chenodeoxycholate and propyl gallate was prepared in water and sprayed onto sugar spheres in a Glatt Mini fluid bed coater. Following drying, sugar spheres coated with peptide and permeation enhancers were coated to result in the compositions described in Table 23.

[5] = Canine study, MEDI7219 enterically coated tablets with or without Tris base, fresh or stressed (Example 19, Table 26); format: in vivo; conditions: beagle, dog, plasma, po, Beagle dogs
Source text: The objective was to study influence of MEDI7219 (SEQ ID NO:2) enterically coated tablet formulation composition with or without Tris base on bioperformance Study design and outcomes are provided in Table 26.

[6] = iv, 0.01 mg/kg, IV, 0.01 mg/kg, Group 1 control, 0.01 mg/mL peptide
[7] = other: intraduodenal (ID), 1 mg/kg, ID, 1 mg/kg, Group 2: 0.5 mg/mL peptide, 25 mg/mL Na CDC, 12.5 mg/mL Ethyl Gallate
[8] = other: intraduodenal (ID), 1 mg/kg, ID, 1 mg/kg, Group 3: 0.5 mg/mL peptide, 12.5 mg/mL Na CDC, 25 mg/mL Ethyl Gallate
[9] = other: intraduodenal (ID), 1 mg/kg, ID, 1 mg/kg, Group 4: 0.5 mg/mL peptide, 25 mg/mL Na CDC, 12.5 mg/mL Octyl Gallate
[10] = other: intraduodenal (ID), 1 mg/kg, ID, 1 mg/kg, Group 5: 0.5 mg/mL peptide, 25 mg/mL Chenodeoxycholic acid, 12.5 mg/mL PG
[11] = other: intraduodenal (ID), 1 mg/kg, ID, 1 mg/kg, Group 8: 0.5 mg/mL peptide, 25 mg/mL Na CDC, 12.5 mg/mL PG

Structure (SMILES): CCCCCCCCCCCC(=O)N[C@@H](CCC(=O)NCCOCCOCC(=O)NCCOCCOCC(=O)NCCCC[C@H](NC(=O)[C@H](C)NC(=O)[C@@H](NC(=O)[C@](C)(Cc1ccccc1)NC(=O)[C@H](CCC(=O)O)NC(=O)[C@](C)(CCCCN)NC(=O)[C@H](C)NC(=O)[C@H](C)NC(=O)[C@H](CCC(=O)O)NC(=O)CNC(=O)[C@H](CCC(=O)O)NC(=O)[C@H](CC(C)C)NC(=O)[C@H](CCCCNC(=O)COCCOCCNC(=O)COCCOCCNC(=O)CC[C@H](NC(=O)CCCCCCCCCCC)C(=O)O)NC(=O)[C@H](CO)NC(=O)[C@](C)(CO)NC(=O)[C@@H](NC(=O)[C@H](CC(=O)O)NC(=O)[C@H](CO)NC(=O)[C@@H](NC(=O)[C@](C)(Cc1ccccc1)NC(=O)[C@H](CO)NC(=O)CNC(=O)[C@H](CCC(=O)O)NC(=O)C(C)(C)NC(=O)[C@@H](N)Cc1c[nH]cn1)[C@@H](C)O)C(C)C)[C@@H](C)CC)C(=O)N[C@H](C(=O)N[C@H](C(=O)N[C@@H](CCC(=O)O)C(=O)NCC(=O)NCC(N)=O)C(C)C)C(C)C)C(=O)O [MEDI7219, Free-H-[AIB]-EGS-[αMePhe]-TSDV-[αMeSer]-SK[(PEG2)2-γE-Lauroyl]-LEGEAA-[αMeLys]-E-[αMePhe]-IAK[(PEG2)2-γE-Lauroyl]-VVEGG-amide] (H-H[Aib]EGS[αMeF]TSDV[αMeS]SK([AEEA-AEEA-γGlu-Lauroyl])LEGEAA[αMeK]E[αMeF]IAK([AEEA-AEEA-γGlu-Lauroyl])VVEGG-NH2)
- EC50 (GLP-1 receptor): ~0.116 nM
- F ([1]; ID, 1 mg/kg, Group 2: 0.5 mg/mL peptide, 25 mg/mL Na CDC, 12.5 mg/mL Ethyl Gallate): 1.11%
- F ([1]; ID, 1 mg/kg, Group 3: 0.5 mg/mL peptide, 12.5 mg/mL Na CDC, 25 mg/mL Ethyl Gallate): 2.14%
- F ([1]; ID, 1 mg/kg, Group 4: 0.5 mg/mL peptide, 25 mg/mL Na CDC, 12.5 mg/mL Octyl Gallate): 1.12%
- F ([1]; ID, 1 mg/kg, Group 5: 0.5 mg/mL peptide, 25 mg/mL Chenodeoxycholic acid, 12.5 mg/mL PG, 1 mg/kg): 1.96% and 1.92%
- F ([1]; ID, 1 mg/kg, Group 6: 0.5 mg/mL peptide, 25 mg/mL Ursodeoxycholic acid, 12.5 mg/mL PG): 0%
- F ([1]; ID, 1 mg/kg, Group 7: 0.5 mg/mL peptide, 25 mg/mL Na CDC, 12.5 mg/mL PG, 25 mg/mL N-Acetyl Cysteine): 0%
- F ([1]; ID, 1 mg/kg, Group 8: 0.5 mg/mL peptide, 25 mg/mL Na CDC, 12.5 mg/mL PG): 1.45%
- F ([1]; IV, 0.01 mg/kg, Group 1 control, 0.01 mg/mL peptide): 100%
- AUC(0-t) [1, 6]: 1030 ng·h/mL
- Cmax [1, 6]: 187 ng/mL
- Tmax [1, 6]: 0.083 h
- half-life [1, 6]: 8.9 h
- AUC(0-t) [1, 7]: 1110 ng·h/mL
- Cmax [1, 7]: 175 ng/mL
- Tmax [1, 7]: 0.25 h
- half-life [1, 7]: 10.3 h
- AUC(0-t) [1, 8]: 1970 ng·h/mL
- Cmax [1, 8]: 282 ng/mL
- Tmax [1, 8]: 0.25 h
- half-life [1, 8]: 7.96 h
- AUC(0-t) [1, 9]: 1170 ng·h/mL
- Cmax [1, 9]: 240 ng/mL
- Tmax [1, 9]: 0.25 h
- half-life [1, 9]: 7.97 h
- AUC(0-t) [1, 10]: 1890 ng·h/mL
- Cmax [1, 10]: 546 ng/mL
- Tmax [1, 10]: 0.25 h
- half-life [1, 10]: 8.6 h
- AUC(0-t) [1, 11]: 1540 ng·h/mL
- Cmax [1, 11]: 140 ng/mL
- Tmax [1, 11]: 2 h
- half-life [1, 11]: 8.83 h
- Bioavailability F (%) ([2]; ID, 1 mg/kg, Group 6: 12.5 mg/mL Sodium Cholate, 25 mg/mL PG (25 + 50 mg/kg)): no bioavailability
- Bioavailability F (%) ([2]; ID, 1 mg/kg, Group 7: 12.5 mg/mL Sodium Caprate, 25 mg/mL PG (25 + 50 mg/kg)): ~0.6%
- Bioavailability F (%) ([2]; ID, 1 mg/kg, Group 8: 12.5 mg/mL Sodium Caprate, 25 mg/mL PG, 10 mg/mL Citric Acid): 0 (NA) %
- exposure ([2]; ID, addition of citric acid to sodium caprate and propyl gallate): below level of quantification
- Bioavailability F (%) ([2]; IV, 0.01 mg/kg, Group 1 control in 50 mM Tris, 150 mM Mannitol, 0.02% Polysorbate 80, pH 8.5): 100%
- F ([3]; Intravenous, 0.01 mg/kg, 0.1 mg/mL in 50 mM Tris, 150 mM Mannitol, 0.02% Polysorbate 80, pH8.0): 100%
- F ([3]; Oral tablet in capsule, Group 8: 1 mg peptide, 100 mg Na CDC, 200 mg PG): 10.7%
- F ([3]; Oral tablet in capsule, Group 9: 1 mg peptide, 200 mg Na CDC, 100 mg PG): 5.0%
- F ([3]; Oral tablet in capsule, Group 12: 1 mg peptide, 33.3 mg Na CDC, 16.6 mg PG (NO TRIS)): 0%
- F ([4]; 10% Carbopol 71G Mucoadhesive polymer + 25% pH 5.5 EC): 0.393%
- F ([4]; 10% Carbopol 71G Mucoadhesive polymer + 25% pH 7.0 EC): 0.582%
- F ([4]; 10% Polycarbophill AA Mucoadhesive polymer + 25% pH 5.5 EC): 0.124%
- F ([4]; 10% Polycarbophill AA Mucoadhesive polymer + 25% pH 7.0 EC): 0.572%
- F ([4]; + 10% Eudragit(RL + RS) + 25% pH 5.5 EC): 0.537%
- F ([4]; pH 5.5 EC): 1.30%
- F ([4]; pH 7.0 EC): 2.54%
- bioavailability ([5]; 3 mg/dog, freshly prepared enterically coated no Tris tablet): 5.2%
- bioavailability ([5]; 3 mg/dog, freshly prepared enterically coated tablets with Tris): 12.4%
- bioavailability ([5]; stressed enterically coated tablet with Tris): 3.8%
- bioavailability ([5]; stressed enterically coated tablet without Tris): 9.6%
